SMILES strings stand for the structures.

Here are results for four compounds from US20200308550A1, “TUMOR ORGANOID MODEL” (IMBA - INSTITUT FÜR MOLEKULARE BIOTECHNOLOGIE GMBH, priority 2017, published 2020).

This assay deals with GBM-1 neoplastic organoids including firefly luciferase. Nature of the assay: Luciferase assay-based drug testing on neoplastic organoids. Type of assay: cell-based, human. Conditions: 1 μM, forty days after drug treatment, vs DMSO. The method, then: FIG. 13. […] Normalized luciferase activity was presented. Statistical analysis of quantifications was performed using one-way ANOVA with Dunnett's test. **, p<0.01.
For drug testing, neoplastic organoids were first grown for 2 months, followed by drug treatment for 40 days. […] After drug treatment, neoplastic organoids were trypsinized for single cell preparation, followed by FACS sorting analysis. Total cell numbers were counted to evaluate the cytotoxicity of the drugs.
In an effort toward adapting this method for large scale screening, we modified the neoplastic cerebral organoid system to include firefly luciferase for measurement of tumor size (FIG. 13a).

`C=CC(=O)Nc1cc2c(Nc3ccc(F)c(Cl)c3)ncnc2cc1OCCCN1CCOCC1` [Canertibib, Canertinib]: the “relative firefly luciferase activity (tumor size)” value is “only non-significant effects”.
The value for `C#Cc1cccc(Nc2ncnc3cc(OCCOC)c(OCCOC)cc23)c1` [Erlotinib] was “significantly reduced firefly luciferase activity”.
The value for `COc1cc2ncnc(Nc3ccc(F)c(Cl)c3)c2cc1OCCCN1CCOCC1` [Gefitinib] was “only non-significant effects”; that for `CCOc1cc2ncc(C#N)c(Nc3ccc(F)c(Cl)c3)c2cc1NC(=O)/C=C/CN(C)C` [Pelitinib] was “only non-significant effects”.
